# Results as given in PubChem BioAssay AID2060513 (Molecular Pharmacology Branch, DTP, NCI, 2025).
# Tested on: 299254-011-R-J1-PDC complex spheroids viability
# Assay: Anticancer human tumor 299254-011-R-J1-PDC patient-derived melanoma cell line growth inhibition [GQUAD]
# Settings: for IC50: curve of first compound; for viability, T/C: stronger effect = lower value
# Method in brief: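 Viability of tumor cells grown as complex spheroids with endothelial and stromal cells, exposed to drug combinations. Top concentration at or near clinical Cmax (else 10 microM), diluted in half-log increments.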
# [1] = second compound 0.0316 µM, first compound 0.0316 µM
# [2] = second compound 0.0316 µM, first compound 0.1 µM
# [3] = second compound 0.0316 µM, first compound 0.316 µM
# [4] = second compound 0.0316 µM, first compound 1 µM
# [5] = second compound 0.0316 µM, first compound 3.16 µM
# [6] = second compound 0.0316 µM, first compound 10 µM
# [7] = second compound 0.1 µM, first compound 0.0316 µM
# [8] = second compound 0.1 µM, first compound 0.1 µM
# [9] = second compound 0.1 µM, first compound 0.316 µM
# [10] = second compound 0.1 µM, first compound 1 µM
# [11] = second compound 0.1 µM, first compound 3.16 µM
# [12] = second compound 0.1 µM, first compound 10 µM
# [13] = second compound 0.316 µM, first compound 0.0316 µM
# [14] = second compound 0.316 µM, first compound 0.1 µM
# [15] = second compound 0.316 µM, first compound 0.316 µM
# [16] = second compound 0.316 µM, first compound 1 µM
# [17] = second compound 0.316 µM, first compound 3.16 µM
# [18] = second compound 0.316 µM, first compound 10 µM
# [19] = second compound 1 µM, first compound 0.0316 µM
# [20] = second compound 1 µM, first compound 0.1 µM
# [21] = second compound 1 µM, first compound 0.316 µM
# [22] = second compound 1 µM, first compound 1 µM
# [23] = second compound 1 µM, first compound 3.16 µM
# [24] = second compound 1 µM, first compound 10 µM
# [25] = second compound 3.16 µM, first compound 0.0316 µM
# [26] = second compound 3.16 µM, first compound 0.1 µM
# [27] = second compound 3.16 µM, first compound 0.316 µM
# [28] = second compound 3.16 µM, first compound 1 µM
# [29] = second compound 3.16 µM, first compound 3.16 µM
# [30] = second compound 3.16 µM, first compound 10 µM
# [31] = second compound 10 µM, first compound 0.0316 µM
# [32] = second compound 10 µM, first compound 0.1 µM
# [33] = second compound 10 µM, first compound 0.316 µM
# [34] = second compound 10 µM, first compound 1 µM
# [35] = second compound 10 µM, first compound 3.16 µM
# [36] = second compound 10 µM, first compound 10 µM
# [37] = second compound 0.0316 µM, first compound 0.000999 µM
# [38] = second compound 0.0316 µM, first compound 0.00316 µM
# [39] = second compound 0.0316 µM, first compound 0.00999 µM
# [40] = second compound 0.0316 µM, first compound 0.0999 µM
# [41] = second compound 0.1 µM, first compound 0.000999 µM
# [42] = second compound 0.1 µM, first compound 0.00316 µM
# [43] = second compound 0.1 µM, first compound 0.00999 µM
# [44] = second compound 0.1 µM, first compound 0.0999 µM
# [45] = second compound 0.316 µM, first compound 0.000999 µM
# [46] = second compound 0.316 µM, first compound 0.00316 µM
# [47] = second compound 0.316 µM, first compound 0.00999 µM
# [48] = second compound 0.316 µM, first compound 0.0999 µM
# [49] = second compound 1 µM, first compound 0.000999 µM
# [50] = second compound 1 µM, first compound 0.00316 µM
# [51] = second compound 1 µM, first compound 0.00999 µM
# [52] = second compound 1 µM, first compound 0.0999 µM
# [53] = second compound 3.16 µM, first compound 0.000999 µM
# [54] = second compound 3.16 µM, first compound 0.00316 µM
# [55] = second compound 3.16 µM, first compound 0.00999 µM
# [56] = second compound 3.16 µM, first compound 0.0999 µM
# [57] = second compound 10 µM, first compound 0.000999 µM
# [58] = second compound 10 µM, first compound 0.00316 µM
# [59] = second compound 10 µM, first compound 0.00999 µM
# [60] = second compound 10 µM, first compound 0.0999 µM
# 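Further: spheroids exposed to the agents for seven days before readout.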
# 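Wherever viability, T/C is given: percent viability relative to DMSO vehicle control wells = 100%.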
smiles,measurement,setting,value
C=CC(=O)N1CCN(c2nc(=O)n(-c3c(C)ccnc3C(C)C)c3nc(-c4c(O)cccc4F)c(F)cc23)C(C)C1 (stereo not drawn) + Cc1[nH]c2ccc(F)cc2c1-c1nc2c3cccnc3c3ncccc3c2[nH]1,IC50,second compound 0.0316 µM,> 10 µM
same,IC50,second compound 0.1 µM,> 10 µM
same,IC50,second compound 0.316 µM,> 10 µM
same,IC50,second compound 1 µM,> 10 µM
same,IC50,second compound 3.16 µM,> 10 µM
same,IC50,second compound 10 µM,> 10 µM
same,"viability, T/C",[1],85%
same,"viability, T/C",[2],63.2%
same,"viability, T/C",[3],62%
same,"viability, T/C",[4],56%
same,"viability, T/C",[5],67.1%
same,"viability, T/C",[6],75.7%
same,"viability, T/C",[7],72.9%
same,"viability, T/C",[8],85%
same,"viability, T/C",[9],60.5%
same,"viability, T/C",[10],56.7%
same,"viability, T/C",[11],66.2%
same,"viability, T/C",[12],78.3%
same,"viability, T/C",[13],67.3%
same,"viability, T/C",[14],80.1%
same,"viability, T/C",[15],63.1%
same,"viability, T/C",[16],64.6%
same,"viability, T/C",[17],74.2%
same,"viability, T/C",[18],69.9%
same,"viability, T/C",[19],67.8%
same,"viability, T/C",[20],69.4%
same,"viability, T/C",[21],66.2%
same,"viability, T/C",[22],79.8%
same,"viability, T/C",[23],63.7%
same,"viability, T/C",[24],86.8%
same,"viability, T/C",[25],73%
same,"viability, T/C",[26],81.1%
same,"viability, T/C",[27],73.8%
same,"viability, T/C",[28],78.4%
same,"viability, T/C",[29],74.7%
same,"viability, T/C",[30],69.9%
same,"viability, T/C",[31],74.4%
same,"viability, T/C",[32],71.5%
same,"viability, T/C",[33],72.5%
same,"viability, T/C",[34],67.1%
same,"viability, T/C",[35],77.6%
same,"viability, T/C",[36],59.4%
CC[C@@]1(O)C(=O)OCc2c1cc1n(c2=O)Cc2cc3c(CN(C)C)c(O)ccc3nc2-1 + Cc1[nH]c2ccc(F)cc2c1-c1nc2c3cccnc3c3ncccc3c2[nH]1,IC50,second compound 0.0316 µM,> 0.316 µM
same,IC50,second compound 0.1 µM,> 0.316 µM
same,IC50,second compound 0.316 µM,> 0.316 µM
same,IC50,second compound 1 µM,> 0.316 µM
same,IC50,second compound 3.16 µM,> 0.316 µM
same,IC50,second compound 10 µM,> 0.316 µM
same,"viability, T/C",[37],119%
same,"viability, T/C",[38],92.6%
same,"viability, T/C",[39],102%
same,"viability, T/C",[1],85.8%
same,"viability, T/C",[40],86%
same,"viability, T/C",[3],79.4%
same,"viability, T/C",[41],115%
same,"viability, T/C",[42],105%
same,"viability, T/C",[43],112%
same,"viability, T/C",[7],78.2%
same,"viability, T/C",[44],109%
same,"viability, T/C",[9],74.8%
same,"viability, T/C",[45],86.2%
same,"viability, T/C",[46],88.3%
same,"viability, T/C",[47],89.2%
same,"viability, T/C",[13],106%
same,"viability, T/C",[48],93.2%
same,"viability, T/C",[15],77.7%
same,"viability, T/C",[49],97%
same,"viability, T/C",[50],103%
same,"viability, T/C",[51],98.2%
same,"viability, T/C",[19],101%
same,"viability, T/C",[52],87.2%
same,"viability, T/C",[21],86.9%
same,"viability, T/C",[53],87.2%
same,"viability, T/C",[54],116%
same,"viability, T/C",[55],95%
same,"viability, T/C",[25],111%
same,"viability, T/C",[56],96.8%
same,"viability, T/C",[27],101%
same,"viability, T/C",[57],95%
same,"viability, T/C",[58],97.8%
same,"viability, T/C",[59],85.1%
same,"viability, T/C",[31],85.3%
same,"viability, T/C",[60],116%
same,"viability, T/C",[33],79.8%
CCc1c2c(nc3ccc(O)cc13)-c1cc3c(c(=O)n1C2)COC(=O)[C@]3(O)CC + Cc1[nH]c2ccc(F)cc2c1-c1nc2c3cccnc3c3ncccc3c2[nH]1,IC50,second compound 0.0316 µM,> 0.316 µM
same,IC50,second compound 0.1 µM,> 0.316 µM
same,IC50,second compound 0.316 µM,> 0.316 µM
same,IC50,second compound 1 µM,> 0.316 µM
same,IC50,second compound 3.16 µM,> 0.316 µM
same,IC50,second compound 10 µM,> 0.316 µM
same,"viability, T/C",[37],106%
same,"viability, T/C",[38],88.8%
same,"viability, T/C",[39],73.2%
same,"viability, T/C",[1],73.7%
same,"viability, T/C",[40],79.6%
same,"viability, T/C",[3],66.1%
same,"viability, T/C",[41],108%
same,"viability, T/C",[42],117%
same,"viability, T/C",[43],85.4%
same,"viability, T/C",[7],90.2%
same,"viability, T/C",[44],79.6%
same,"viability, T/C",[9],64.8%
same,"viability, T/C",[45],91.1%
same,"viability, T/C",[46],117%
same,"viability, T/C",[47],69.2%
same,"viability, T/C",[13],84.2%
same,"viability, T/C",[48],88.2%
same,"viability, T/C",[15],70.2%
same,"viability, T/C",[49],105%
same,"viability, T/C",[50],92.7%
same,"viability, T/C",[51],94.2%
same,"viability, T/C",[19],77.5%
same,"viability, T/C",[52],84%
same,"viability, T/C",[21],68.6%
same,"viability, T/C",[53],102%
same,"viability, T/C",[54],114%
same,"viability, T/C",[55],75.7%
same,"viability, T/C",[25],80.7%
same,"viability, T/C",[56],79.9%
same,"viability, T/C",[27],72.2%
same,"viability, T/C",[57],96.1%
same,"viability, T/C",[58],94.4%
same,"viability, T/C",[59],80.7%
same,"viability, T/C",[31],76.8%
same,"viability, T/C",[60],60.1%
same,"viability, T/C",[33],58.8%
COc1cccc2c1C(=O)c1c(O)c3c(c(O)c1C2=O)CC(O)(C(=O)CO)CC3OC1CC(N)C(O)C(C)O1 (stereo not drawn) + Cc1[nH]c2ccc(F)cc2c1-c1nc2c3cccnc3c3ncccc3c2[nH]1,IC50,second compound 0.0316 µM,4.67 µM
same,IC50,second compound 0.1 µM,4.19 µM
same,IC50,second compound 0.316 µM,5.32 µM
same,IC50,second compound 1 µM,4.92 µM
same,IC50,second compound 3.16 µM,2.99 µM
same,IC50,second compound 10 µM,2.56 µM
same,"viability, T/C",[1],100%
same,"viability, T/C",[2],91.5%
same,"viability, T/C",[3],82.2%
same,"viability, T/C",[4],90.5%
same,"viability, T/C",[5],62.4%
same,"viability, T/C",[6],25.7%
same,"viability, T/C",[7],91.4%
same,"viability, T/C",[8],91.7%
same,"viability, T/C",[9],88%
same,"viability, T/C",[10],66.4%
same,"viability, T/C",[11],64.7%
same,"viability, T/C",[12],23.8%
same,"viability, T/C",[13],94.2%
same,"viability, T/C",[14],92.1%
same,"viability, T/C",[15],93.3%
same,"viability, T/C",[16],94.7%
same,"viability, T/C",[17],74.4%
same,"viability, T/C",[18],20.4%
same,"viability, T/C",[19],88.9%
same,"viability, T/C",[20],86.9%
same,"viability, T/C",[21],94.2%
same,"viability, T/C",[22],95.3%
same,"viability, T/C",[23],69.1%
same,"viability, T/C",[24],19.3%
same,"viability, T/C",[25],89.9%
same,"viability, T/C",[26],91.7%
same,"viability, T/C",[27],90.1%
same,"viability, T/C",[28],70.3%
same,"viability, T/C",[29],50.2%
same,"viability, T/C",[30],13.4%
same,"viability, T/C",[31],90.2%
same,"viability, T/C",[32],91.3%
same,"viability, T/C",[33],82.6%
same,"viability, T/C",[34],83.3%
same,"viability, T/C",[35],42.6%
same,"viability, T/C",[36],11.9%
